ChEMBL document CHEMBL3774366, “Synthesis, and docking studies of phenylpyrimidine-carboxamide derivatives bearing 1H-pyrrolo[2,3-b]pyridine moiety as c-Met inhibitors” (Bioorg Med Chem, 2016)

How the values were obtained:
[1] = test system: A549; test: Cytotoxicity against human A549 cells after 72 hrs by MTT assay
[2] = test system: MCF7
Description: (§1) Cytotoxicity against human MCF7 cells after 72 hrs by MTT assay

[3] = cells; details: Homo sapiens, PC-3, 72 h
Description: Cytotoxicity against human PC3 cells after 72 hrs by MTT assay

[4] = biological target: Hepatocyte growth factor receptor (Homo sapiens, UniProt P08581); test: Inhibition of c-Met (unknown origin) using FAM-labeled peptide substrate after 10 mins by mobility shift assay
Hepatocyte growth factor receptor, sequence (P08581 whole entry): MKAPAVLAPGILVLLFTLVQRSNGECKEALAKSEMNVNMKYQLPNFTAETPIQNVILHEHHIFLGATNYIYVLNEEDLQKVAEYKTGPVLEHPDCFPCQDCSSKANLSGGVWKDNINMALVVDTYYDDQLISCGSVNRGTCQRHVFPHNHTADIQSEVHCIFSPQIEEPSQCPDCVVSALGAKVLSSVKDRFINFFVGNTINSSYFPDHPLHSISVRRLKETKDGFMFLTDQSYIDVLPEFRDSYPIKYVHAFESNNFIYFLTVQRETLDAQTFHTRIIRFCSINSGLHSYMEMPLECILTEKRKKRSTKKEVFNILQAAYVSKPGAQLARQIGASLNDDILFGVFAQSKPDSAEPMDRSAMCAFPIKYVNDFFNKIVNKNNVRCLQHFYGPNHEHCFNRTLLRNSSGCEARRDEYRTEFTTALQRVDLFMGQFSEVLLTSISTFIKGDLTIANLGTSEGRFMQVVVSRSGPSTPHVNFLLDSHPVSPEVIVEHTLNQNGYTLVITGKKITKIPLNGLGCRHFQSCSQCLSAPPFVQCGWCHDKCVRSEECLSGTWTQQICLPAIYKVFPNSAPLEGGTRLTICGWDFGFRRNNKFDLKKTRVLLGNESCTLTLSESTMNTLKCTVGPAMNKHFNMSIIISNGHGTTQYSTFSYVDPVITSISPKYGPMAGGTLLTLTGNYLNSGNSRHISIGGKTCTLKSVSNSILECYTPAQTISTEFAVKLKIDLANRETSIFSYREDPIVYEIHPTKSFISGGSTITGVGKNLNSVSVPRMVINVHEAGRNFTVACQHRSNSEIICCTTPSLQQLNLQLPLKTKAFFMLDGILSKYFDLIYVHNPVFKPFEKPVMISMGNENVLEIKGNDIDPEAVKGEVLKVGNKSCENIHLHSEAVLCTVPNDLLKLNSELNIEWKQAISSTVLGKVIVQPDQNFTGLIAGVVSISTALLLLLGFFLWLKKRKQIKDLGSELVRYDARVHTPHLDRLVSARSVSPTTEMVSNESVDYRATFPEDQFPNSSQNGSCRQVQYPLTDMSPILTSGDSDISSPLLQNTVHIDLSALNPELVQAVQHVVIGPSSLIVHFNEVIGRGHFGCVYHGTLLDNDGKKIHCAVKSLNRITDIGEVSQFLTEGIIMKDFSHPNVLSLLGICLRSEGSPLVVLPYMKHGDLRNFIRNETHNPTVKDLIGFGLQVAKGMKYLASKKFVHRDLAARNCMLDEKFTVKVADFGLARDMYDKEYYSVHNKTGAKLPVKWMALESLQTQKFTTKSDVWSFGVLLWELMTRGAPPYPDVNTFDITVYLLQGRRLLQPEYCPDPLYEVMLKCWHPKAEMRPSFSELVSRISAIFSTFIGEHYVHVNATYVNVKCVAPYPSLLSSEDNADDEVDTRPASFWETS

[5] = test system: HeLa; test: Cytotoxicity against human HeLa cells after 72 hrs by MTT assay; type: functional, cell-based
[6] = test system: HepG2; test: Cytotoxicity against human HepG2 cells after 72 hrs by MTT assay; type: functional, cell-based; details: HepG2, 72 h
[7] = test system: MCF7; test: cells; details: Homo sapiens, MCF7, 72 h
Description: as §1

Compound | IC50 ([1]; Homo sapiens, A549, 72 h) | IC50 [2] | IC50 [3] | IC50 [4] | IC50 [5] | IC50 [6] | IC50 [7] | IC50 ([1]; a549)
O=C(Nc1ccc(Oc2ccnc3[nH]ccc23)c(F)c1)c1nccc(-c2ccc([N+](=O)[O-])cc2)n1 | 4.47 µM | Not Active | 12.1 µM |  |  |  |  | 
Cc1ccc(-c2ccnc(C(=O)Nc3ccc(Oc4ccnc5[nH]ccc45)c(F)c3)n2)cc1 | 1.15 µM |  | 0.52 µM | 3.4 µM | 5.51 µM | 16.4 µM | 7.17 µM | 
O=C(Nc1ccc(Oc2ccnc3[nH]ccc23)c(F)c1)c1cc(-c2ccc(F)cc2)ncn1 | 14.2 µM | Not Active |  |  |  |  |  | 
O=C(Nc1ccc(Oc2ccnc3[nH]ccc23)cc1)c1cc(-c2ccc(Br)cc2)ncn1 | 9.87 µM |  | 2.61 µM |  |  |  | 3.84 µM | 
COc1ccc(-c2ccnc(C(=O)Nc3ccc(Oc4ccnc5[nH]ccc45)cc3)n2)cc1 | 13.3 µM |  | 17.3 µM |  |  |  | 12.4 µM | 
O=C(Nc1ccc(Oc2ccnc3[nH]ccc23)c(F)c1)c1nccc(-c2ccc(Cl)cc2)n1 | 8.94 µM |  | 14.6 µM |  |  |  | 9.66 µM | 
O=C(Nc1ccc(Oc2ccnc3[nH]ccc23)cc1)c1nccc(-c2cccc(Cl)c2)n1 | 4.12 µM |  | 7.8 µM |  |  |  | 10.2 µM | 
O=C(Nc1ccc(Oc2ccnc3[nH]ccc23)cc1)c1cc(-c2ccc(C(F)(F)F)cc2)ncn1 | 9.38 µM |  | 2.16 µM |  |  |  | 6.24 µM | 
Cc1ccc(-c2ccnc(C(=O)Nc3ccc(Oc4ccnc5[nH]ccc45)cc3)n2)cc1 | 2.38 µM |  | 6.14 µM |  |  |  | 6.41 µM | 
Cc1ccc(-c2cc(C(=O)Nc3ccc(Oc4ccnc5[nH]ccc45)cc3)ncn2)cc1 | 5.41 µM |  | 9.88 µM |  |  |  | 1.62 µM | 
COc1ccc(-c2ccnc(C(=O)Nc3ccc(Oc4ccnc5[nH]ccc45)c(F)c3)n2)cc1 | 5.43 µM |  | 14.1 µM |  |  |  | 8.96 µM | 
COc1ccc(-c2cc(C(=O)Nc3ccc(Oc4ccnc5[nH]ccc45)cc3)ncn2)cc1 | 4.41 µM |  | 9.83 µM |  |  |  | 4.45 µM | 
O=C(Nc1ccc(Oc2ccnc3[nH]ccc23)cc1)c1nccc(-c2ccc(Cl)cc2)n1 | 22.4 µM | Not Active |  |  |  |  |  | 
O=C(Nc1ccc(Oc2ccnc3[nH]ccc23)cc1)c1cc(-c2ccccc2)ncn1 | 0.14 µM |  | 0.24 µM | 0.12 µM | 0.4 µM | 3.11 µM | 0.02 µM | 
O=C(Nc1ccc(Oc2ccnc3[nH]ccc23)c(F)c1)c1cc(-c2ccc(Cl)cc2)ncn1 | 3.36 µM |  | 3.2 µM |  |  |  | 26.9 µM | 
O=C(Nc1ccc(Oc2ccnc3[nH]ccc23)cc1)c1cc(-c2ccc(Cl)cc2)ncn1 | 6.53 µM |  | 15.6 µM |  |  |  | 7.77 µM | 
O=C(Nc1ccc(Oc2ccnc3[nH]ccc23)c(F)c1)c1cc(-c2ccccc2)ncn1 | 0.18 µM |  | 0.04 µM | 0.98 µM | 2.86 µM | 9.61 µM | 4.64 µM | 
O=C(Nc1ccc(Oc2ccnc3[nH]ccc23)cc1)c1nccc(-c2ccc(F)cc2)n1 |  | Not Active |  |  |  |  |  | Not Active
O=C(Nc1ccc(Oc2ccnc3[nH]ccc23)cc1)c1cc(-c2ccc(F)cc2)ncn1 | 13 µM |  |  |  |  |  | 15.9 µM | 
O=C(Nc1ccc(Oc2ccnc3[nH]ccc23)c(F)c1)c1cc(-c2ccc(C(F)(F)F)cc2)ncn1 | 2.22 µM |  | 4.12 µM |  |  |  | 2.84 µM | 
O=C(Nc1ccc(Oc2ccnc3[nH]ccc23)c(F)c1)c1nccc(-c2cccc(Cl)c2)n1 | 0.45 µM |  | 1.38 µM | 2.2 µM | 3.35 µM | 9.34 µM | 1.58 µM | 
O=C(Nc1ccc(Oc2ccnc3[nH]ccc23)c(F)c1)c1cc(-c2ccc(Br)cc2)ncn1 | 6.98 µM |  | 11.3 µM |  |  |  | 10.3 µM | 
Cc1ccc(-c2cc(C(=O)Nc3ccc(Oc4ccnc5[nH]ccc45)c(F)c3)ncn2)cc1 | 8.6 µM |  | 24.9 µM |  |  |  | 6.73 µM | 
COc1ccc(-c2cc(C(=O)Nc3ccc(Oc4ccnc5[nH]ccc45)c(F)c3)ncn2)cc1 | 4.21 µM |  | 2.57 µM |  |  |  | 10.4 µM | 
